# Experimental data: patent US20020058244A1, “Method for detecting uracil biosynthesis inhibitors and their use as herbicides” (priority 2000, published 2002)
# Entries after “also recorded” stand apart in the source; their conditions may differ. Read-outs that look alike come from different tables or passages of the source.
# Tests used:
# grass species = test: Greenhouse herbicide efficacy, preemergence and post-emergence, whole plant injury; type: in vivo; conditions: preemergence and post-emergence applications
# From the text: (§1) The compounds were applied to flats containing individually potted plant species as post-emergent treatments, or seeded flats without emerged plants for preemergent treatments. The compounds were delivered in an 80% acetone solution plus 0.2% X-77. After two or three weeks of treatment, plants were rated compared to controls on a scale of 0 to 9 where 0 represents no injury and 9 represents 100% injury.
# wheat = test: Greenhouse herbicide efficacy, crop safety; type: in vivo; conditions: preemergence and post-emergence applications
# From the text: as §1
# DHO = test: In vitro conversion of [14C]dihydroorotate to carbamoyl aspartate, corn root microsomal preparation; type: biochemical
# Method: (§2) Etiolated corn roots and shoots or soybean suspension cells were used as tissue. Corn seedlings were germinated on vermiculite for 4 days in the dark at 26_C. and roots and shoots harvested separately. The soybean cells were grown in media consisting of Muashige and Skoog salts (Physiol. Plant (1962) 15:473-497) purchased from Gibco/BRL, vitamins (glycine 2 mg/L, thiamine 0.1 mg/L, nicotinic acid 0.5 mg/L, pyridoxine-HCl 0.5 mg/L), myo-inositol (100 mg/L), 2,4-D ([…]), and 30 g/L sucrose. Cell cultures are grown at 25° C. with gentle shaking. Cultures were transfered every 7 days to new growth media.
# (§3) Approximately 5-10 g plant tissue were ground in liquid nitrogen and resuspended in 1:2 (w/v) homogenization buffer (30 mM KPO4^−; 25 mM […], 5 mM MgCl2, 5 mM ascorbic acid, pH 7.2). The homogenate was centrifuged at 10,000 g for 20 min, and the supernatant desalted using BioRad columns. The desalted supernatant was used for OPRTase/ODCase enzyme assays. For DHOD enzyme extraction, the supernatant was further centrifuged at 100,000 g for 45 min to obtain a microsomal pellet. The microsomal pellet was resuspended in 3-4 ml resuspension buffer (70 mM Tris-base, pH 7.4) containing 1% Triton X-100.
# (§4) All enzyme assays were performed according to Rawls, J. M. (1978) Anal. Biochem. 86 (1): 107-117 and Cleaveland et al. (1995). Biochem. Pharm. 49(7):947-954. Enzyme assays were performed in a total volume of 200 ul with 1 uM [^14C]carbamoyl aspartate, [^14C]dihydroorotate or [^14C]orotate as substrates, and 1-5 mM probe compound or barbiturate as inhibitors. The [^14C]carbamoyl aspartate and [^14C]dihydroorotate assay was performed using a potassium phosphate buffer, pH 7.4 with 12 mM NAD^+, and 10 mM MgCl2. The [^14C]orotate enzyme assay was performed using Tris buffer, pH 8.8 with 12 mM PRPP and 10 mM MgCl2. Over time, 25 ul aliquots were taken from the reaction tube and boiled for 5 min to stop the reaction. Samples were spotted onto cellulose TLC plates and run using 0.1 M potassium phosphate buffer, 100% ammonium sulfate, and 1-propanol (10:6:1). Plates were developed using a TLC plate radioisotope detector. Orotate and UMP standards were run next to unknowns to identify the conversion of [^14C]orotate to [^14C]UMP in the enzyme assay.
# Arabidopsis = Arabidopsis 96 well microtiter plate injury and reversal test; type: in vivo; conditions: for reversal of lethal effects by uridine: 100 μM uridine; for uracil biosynthesis inhibitory activity: reversal assay, see Table III
# Method: The compounds were tested in a 96 microtiter well plate containing various concentrations of probe compound with or without intermediates of the pyrimidine and purine biosynthesis pathways to detect reversal of injury. Plates were filled with 0.7% agar medium, seeded with Arabidopsis, and placed in a growth chamber for several days to allow for seed germination and plant growth. Arabidopsis plates were rated on a scale from 0 to 9 where 0 represents no injury, and 9 represents no germination. In addition, injury symptoms observed were recorded.
# DHOD = test: In vitro conversion of [14C]dihydroorotate to orotate, corn root microsomal preparation; type: biochemical
# Method: as §2, §3, §4
# OPRTase/ODCase = test: In vitro enzymatic conversion of [14C]-orotate to UMP, cell free extract from corn root tissue; type: biochemical; conditions: for effect on OPRTase/ODCase activity (conversion of [14C]-orotate to UMP): cell free extract
# Method: as §2, §3
# as §4, with “The [^14C]orotate enzyme assay was performed using Tris buffer, pH 8.8 with 12 mM PRPP and 10 mM MgCl2.” left out
# [1] = tested on: uracil biosynthesis pathway; test: [14C]-carbamoyl aspartate incorporation into uracil/uridine and orotate in soybean cell cultures; type: cell-based
# Method: Soybean suspension cultures in the linear growth phase were used for [^14C]carbamoyl aspartate uptake and incorporation studies. Cells were treated with 0.01 uM [^14C]carbamoyl aspartate (approximately 200,000-400,000 dpm) with or without 100 uM compound “B”. Over time, aliquots were harvested by filtration, and rinsed thoroughly with potassium phosphate buffer, pH 3.11. Aliquots of uptake media and rinse were counted using a liquid scintillation spectrophotometer to determine percent uptake. Cells were immediately weighed, ground to a fine powder in liquid nitrogen, and suspended in 50% methanol. The homogenate was centrifuged at 10,000 g for 20 min. A portion of the pellet was weighed out and combusted to determine dpm's associated with this fraction. An aliquot of the supernatant was counted to determine the amount of label in the soluble fraction. Recovery of applied radiolabeled [^14C]carbamyol aspartate was 90-100%.
# The soluble supernatant was concentrated overnight by lyophilization, and the extract was resuspended in 1 ml potassium phosphate buffer, pH 3.11. For HPLC analysis an anion exchange column was used with 85:15% potassium phosphate buffer, pH 3.11 and acetonitrile as running buffers. Fractions (1 ml) were collected for 20 min (flow rate […]), and counted using a liquid scintillation counter (LSC). UV absorbance was analyzed at 260 and 275 nm as the optimum absorbency wavelengths for UMP and orotate, respectively. Standards were used to identify the various peaks from the HPLC profile. Standard retention times under these conditions were: 3-4 min uracil/uridine, 7-9 min carbamoyl aspartate, 11-13 min UMP, and 17-19 min orotate.
# [2] = Stability in aqueous solution by mass spectroscopy and NMR; type: physicochemical; conditions: for half-life: aqueous solution
# Method: The stability analysis of the compound “B”, compound “C”, compound “G”, and compound “E” compounds was performed using a Hewlett Packard HP1100 LC system coupled to a Micromass Platfom-LC mass spectrometer operating with an electrospray ionization source. In positive ion electrospray, AC12254 82A produced molecules at m/z 112(M^+), m/z 153 (M+41) at a cone voltage of 30V. Retention time of AC 12254 82A was 12.54 min with absorption maxima of 248 and 314 nm.
# Column: Hypersil Spherisorb Waters ODS(2), 3.6×150 mm
# Eluent: 60% acetonitrile, 40% water (0.1% formic acid)
# Photodiode Array Detection: Scan Range: 190-600 nm
# 1H NMR was taken in DMSO-d6 on a 500 MHZ Bruker NMR Spectrometer. […] Each had 5 protons as follows: NH, 2OH and 2 CH.
# ODCase = molecular target: T1, ODCase (Rattus norvegicus, UniProt A0ACM8Q7Z8); conditions: rat brain tissue; cited from earlier work
# T1 construct: host or cells: rat brain tissue
# T1 sequence (A0ACM8Q7Z8 entry or part of it): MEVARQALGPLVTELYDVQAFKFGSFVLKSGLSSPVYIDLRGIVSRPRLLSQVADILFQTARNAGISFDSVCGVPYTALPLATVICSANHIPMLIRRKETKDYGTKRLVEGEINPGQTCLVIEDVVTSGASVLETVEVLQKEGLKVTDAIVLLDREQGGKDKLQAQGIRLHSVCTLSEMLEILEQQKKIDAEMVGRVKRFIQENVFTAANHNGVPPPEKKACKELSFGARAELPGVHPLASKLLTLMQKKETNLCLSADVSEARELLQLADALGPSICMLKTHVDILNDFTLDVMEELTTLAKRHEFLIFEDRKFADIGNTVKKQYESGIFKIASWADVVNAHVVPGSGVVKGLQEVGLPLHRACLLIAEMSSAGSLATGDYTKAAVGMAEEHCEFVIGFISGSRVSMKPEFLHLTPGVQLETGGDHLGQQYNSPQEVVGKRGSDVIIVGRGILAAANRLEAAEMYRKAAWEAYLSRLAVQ
smiles,measurement,setting,value
"O=C1NN=C/C1=C/Nc1ccc(F)cc1F [B, 4-[[(2,4-difluorophenyl)amino]methylene]-2,4-dihydro-3H-pyrazol-3-one]","herbicidal effect, injury",grass species,≥ 50%
same,crop safety,wheat,safety on wheat
same,effect on DHO activity (dihydroorotate converted to carbamoyl aspartate) versus untreated control,DHO,no difference
same,effect on DHO activity (dihydroorotate converted to carbamoyl aspartate) versus untreated control,DHO; listed as probe compound,did not inhibit
same,germination of Arabidopsis seeds,Arabidopsis; 1 μM,normal germination
same,germination of Arabidopsis seeds,Arabidopsis; 16 μM,partial germination
same,growth inhibition,Arabidopsis; 30 uM combined with 100 uM uracil,0%
same,germination of Arabidopsis seeds,Arabidopsis; 50 μM,not observed
same,germination of Arabidopsis seeds,Arabidopsis; 100 μM,not observed
same,"reversal of injury by uracil, UMP and uridine",Arabidopsis; 100 uM antidote in growth media,reversed
same,reversal of lethal effects by uridine,Arabidopsis; highest tested concentration of compound,does not reverse
same,reversal of lethal effects by uridine,Arabidopsis; lower concentrations of compound (Rows 2-4),reversed
same,germination of Arabidopsis seeds,Arabidopsis; 500 μM,not observed
same,inhibition at 30 µM,"Arabidopsis; Arabidopsis thaliana, 30 uM, compound alone, read-out: growth inhibition",50%
same,IC50,"Arabidopsis; Arabidopsis thaliana, 96 well microtiter plate, read-out: estimated IC50 on Arabidopsis",30 µM
same,reversal of herbicidal effects by orotate or OMP,Arabidopsis; in vivo,did not reverse
same,reversal of herbicidal effects by vitamins or purines,Arabidopsis; in vivo,Neither vitamins nor purines reversed
same,"reversal of lethal effects by adenine, cytosine, guanine, and thymidine",Arabidopsis; in vivo,did not reverse
same,effect on DHOD activity (dihydroorotate converted to orotate) versus untreated control,DHOD,no difference
same,effect on DHOD activity (dihydroorotate converted to orotate) versus untreated control,DHOD; listed as probe compound,did not inhibit
same,radiolabeled orotate converted to UMP,"OPRTase/ODCase; 15 minutes after treatment, 100 μM PRPP, untreated control 55%",55%
same,effect on OPRTase/ODCase activity (conversion of [14C]-orotate to UMP),OPRTase/ODCase,does not affect
same,effect on OPRTase/ODCase activity (conversion of [14C]-orotate to UMP),OPRTase/ODCase; listed as probe compound,did not inhibit
same,incorporation of radiolabeled carbamoyl aspartate into uracil/uridine,[1]; 50 μM,25%
same,incorporation of radiolabeled carbamoyl aspartate into uracil/uridine,[1]; 100 μM,10%
same,incorporation of [14C]-carbamoyl aspartate into orotate peak (16-19 min),"[1]; 100 uM, HPLC profile FIG. 6",70%
same,incorporation of radiolabeled carbamoyl aspartate into uracil/uridine,"[1]; 100 μM, listed as probe compound",19%
same,incorporation of radiolabeled carbamoyl aspartate into orotic acid,[1]; 1 and 10 μM,0-5%
same,incorporation of radiolabeled carbamoyl aspartate into uracil/uridine,[1]; 1 and 10 μM,80-90%
same,incorporation of radiolabeled carbamoyl aspartate into orotic acid,[1]; 50 and 100 μM,45-60%
same,IC50,"[1]; Glycine max, soybean cell cultures, estimated, read-out: IC50 of inhibition of [14C]-carbamoyl aspartate incorporation",~50 µM
same,half-life,[2],< 24 h
"O=c1cnn([C@@H]2O[C@H](CO)[C@@H](O)[C@H]2O)c(=O)[nH]1 [Compound 6-Azauridine, 6-Azauridine, reference compound]",effect on OPRTase/ODCase activity (conversion of [14C]-orotate to UMP),OPRTase/ODCase,not shown to inhibit
"O=c1[nH][nH]cc1C=NO [D, 2,3-dihydro-3-oxo-1H-pyrazole-4-carboxaldehyde-4-oxime]",effect on DHO activity (dihydroorotate converted to carbamoyl aspartate) versus untreated control,DHO,no difference
same,effect on DHOD activity (dihydroorotate converted to orotate) versus untreated control,DHOD,no difference
"CN(C)C=C1C=NNC1=O [E, 4-[(dimethylamino)methylene]-2,4-dihydro-3H-pyrazol-3-one]",uracil biosynthesis inhibitory activity,Arabidopsis,significant
same,stability in aqueous solution,[2],stable in aqueous solution with no hydrolysis detected; also recorded: stable
"CN1N=CC(=CNc2ccc(F)cc2F)C1=O [G, 4-[[(2,4-difluorophenyl)amino]methylene]-2,4-dihydro-2-methyl-3H-pyrazol-3-one]",uracil biosynthesis inhibitory activity,Arabidopsis,only marginal
same,stability in aqueous solution,[2],relatively stable
same,half-life,[2],> 24 h
"O=C(O)C1C=NNC1=O (stereo not shown) [J, 4,5-dihydro-5-oxo-1H-pyrazole-4-carboxylic acid; or 2,3-dihydro-3-oxo-1H-pyrazole-4-carboxylic acid]",effect on DHO activity (dihydroorotate converted to carbamoyl aspartate) versus untreated control,DHO,no difference
same,effect on DHOD activity (dihydroorotate converted to orotate) versus untreated control,DHOD,no difference
O=C1CC(=O)N([C@@H]2O[C@H](COP(=O)(O)O)[C@@H](O)[C@H]2O)C(=O)N1 [ribotide of barbiturate],Ki,ODCase,0.0041 µM
